This is an account of results in publication PMC8286840, “Identifying SARS-CoV-2 antiviral compounds by screening for small molecule inhibitors of Nsp3 papain-like protease” (Biochemical Journal, 2021).

Structures can show the parent of a compound that is named as a salt. Where two headings read alike, the source gives them in different places.

Experiment [1] has as its target T1, SARS-CoV-2 PLpro (nsp3 1564–1878) (Severe acute respiratory syndrome coronavirus 2, UniProt P0DTD1). Description: biochemical. On the set-up: FRET-quenched peptide (Pro3) cleavage by PLpro, 10 min pre-incubation, slope over 20 min, normalised to no-compound control. The conditions noted are these: low concentration screen.
Experiment [2] has as its target T1, SARS-CoV-2 PLpro (nsp3 1564–1878). In words: biochemical. Also noted: FRET-quenched peptide (Pro3) cleavage by PLpro, 10 min pre-incubation, slope over 20 min, normalised to no-compound control. The settings on record: high concentration screen.
The mark [3] stands for this setting: Well no.=6262, read-out: % of control remaining.
Where [4] appears, read: Well no.=3202, read-out: % of control remaining.
Setting [5] is: Well no.=1765, read-out: % of control remaining.
[6] abbreviates: Well no.=5166, read-out: % of control remaining.
Where [7] appears, read: Well no.=6153, read-out: % of control remaining.
Setting [8] is: Well no.=8537, read-out: % of control remaining.
[9] abbreviates: Well no.=7355, read-out: % of control remaining.
Setting [10] is: Well no.=7870, read-out: % of control remaining.
The mark [11] stands for this setting: Well no.=3164, read-out: % of control remaining.
The mark [12] stands for this setting: Well no.=392, read-out: % of control remaining.
Setting [13] is: Well no.=449, read-out: % of control remaining.
Where [14] appears, read: Well no.=7408, read-out: % of control remaining.
[15] abbreviates: Well no.=545, read-out: % of control remaining.
Where [16] appears, read: Well no.=8153, read-out: % of control remaining.
Setting [17] is: Well no.=5972, read-out: % of control remaining.
[18] abbreviates: Well no.=5339, read-out: % of control remaining.
Where [19] appears, read: Well no.=8291, read-out: % of control remaining.
Setting [20] is: Well no.=3278, read-out: % of control remaining.
Where [21] appears, read: Well no.=5164, read-out: % of control remaining.
Where [22] appears, read: Well no.=6662, read-out: % of control remaining.
[23] abbreviates: Well no.=5062, read-out: % of control remaining.
Setting [24] is: Well no.=6465, read-out: % of control remaining.
The mark [25] stands for this setting: Well no.=5357, read-out: % of control remaining.
The mark [26] stands for this setting: read-out: % of control remaining, Well no.=1861.
[27] abbreviates: read-out: % of control remaining, Well no.=6467.
Where [28] appears, read: Well no.=6653, read-out: % of control remaining.
Where [29] appears, read: Well no.=6367, read-out: % of control remaining.
[30] abbreviates: Well no.=5319, read-out: % of control remaining.
[31] abbreviates: Well no.=7181, read-out: % of control remaining.
The mark [32] stands for this setting: Well no.=5139, read-out: % of control remaining.
Where [33] appears, read: Well no.=8295, read-out: % of control remaining.
[34] abbreviates: Well no.=447, read-out: % of control remaining.
Where [35] appears, read: Well no.=1976, read-out: % of control remaining.

With `COc1cc(/C=C/C(O)=C/C(=O)/C=C/c2ccc(O)cc2)ccc1O` [Demethoxycurcumin], the remaining activity at 1.25 µM in experiment [1] (setting [3]) stood at 103%. The remaining activity at 3.75 µM in experiment [2] (setting [3]) amounted to 98.7%.
As for `C[C@H]1CC[C@@H]2[C@@H](C)[C@H]3[C@H](C[C@H]4[C@@H]5CC[C@H]6C[C@@H](O)CC[C@]6(C)[C@H]5CC[C@]34C)N2C1` [Demissidine], the remaining activity at 1.25 µM in experiment [1] (setting [4]) came to 104%. Besides, in experiment [2] (setting [4]), the remaining activity at 3.75 µM turned out to be 107%.
With `CCCCn1c(=O)c2c(ncn2CC(C)=O)n(CCCC)c1=O` [Denbufylline], in experiment [1] (setting [5]), the remaining activity at 1.25 µM was determined as 102%. Also, the remaining activity at 3.75 µM in experiment [2] (setting [5]) amounted to 99.8%.
For the molecule `Oc1ccc(OC2CCCCO2)cc1` (stereo not drawn) [Deoxyarbutin], the remaining activity at 1.25 µM in experiment [1] (setting [6]) came to 103%. In addition, in experiment [2] (setting [6]), the remaining activity at 3.75 µM amounted to 101%.
`C[C@H](CCC(=O)O)[C@H]1CC[C@H]2[C@@H]3CC[C@@H]4C[C@H](O)CC[C@]4(C)[C@H]3C[C@H](O)[C@]12C` [Deoxycholic acid]: the remaining activity at 1.25 µM in experiment [1] (setting [7]) worked out at 107%; in experiment [1] (setting [8]), 102%. Besides, the remaining activity at 3.75 µM was 112% in experiment [2] (setting [7]) and 103% in experiment [2] (setting [8]).
In the case of `Nc1ccn([C@H]2C[C@H](O)[C@@H](COP(=O)(O)OP(=O)(O)OP(=O)(O)O)O2)c(=O)n1` [Deoxycytidine triphosphate], the remaining activity at 1.25 µM in experiment [1] (setting [9]) was found to be 99.9%; in experiment [1] (setting [10]) it was 101%. The remaining activity at 3.75 µM amounted to 100% in experiment [2] (setting [9]) and 102% in experiment [2] (setting [10]).
Turning to `CC(C)=CCCC1=CC(=O)c2c(O)ccc(O)c2C1=O` [Deoxyshikonin], the remaining activity at 1.25 µM in experiment [1] (setting [11]) worked out at 86.1%. For the same molecule, the remaining activity at 3.75 µM in experiment [2] (setting [11]) stood at 85.7%.
Turning to `CN(N=O)c1cc(O)ccc1O` [Dephostatin], the remaining activity at 1.25 µM in experiment [1] (setting [12]) was determined as 97.4%. Moreover, the remaining activity at 3.75 µM in experiment [2] (setting [12]) stood at 97.3%.
With `Cc1cc(N)c2ccccc2[n+]1CCCCCCCCCC[n+]1c(C)cc(N)c2ccccc21` [Dequalinium dichloride], the remaining activity at 1.25 µM in experiment [1] (setting [13]) was 101%. Moreover, in experiment [2] (setting [13]), the remaining activity at 3.75 µM was found to be 96.8%.
On to `COc1ccc(-c2cc(C(F)F)nn2-c2ccc(S(N)(=O)=O)cc2)cc1F` [Deracoxib], for which, in experiment [1] (setting [14]), the remaining activity at 1.25 µM amounted to 106%. For the same molecule, the remaining activity at 3.75 µM in experiment [2] (setting [14]) is 102%.
For the molecule `CNCCCN1c2ccccc2CCc2ccccc21` [Desipramine hydrochloride], in experiment [1] (setting [15]), the remaining activity at 1.25 µM came to 99.2%. The remaining activity at 3.75 µM in experiment [2] (setting [15]) came out at 101%.
In the case of `N=C(N)NCCC[C@@H](NC(=O)[C@@H]1CCCN1C(=O)[C@@H]1CSSCCC(=O)N[C@@H](Cc2ccc(O)cc2)C(=O)N[C@@H](Cc2ccccc2)C(=O)N[C@@H](CCC(N)=O)C(=O)N[C@@H](CC(N)=O)C(=O)N1)C(=O)NCC(N)=O` [Desmopressin (Acetate)], in experiment [1] (setting [16]), the remaining activity at 1.25 µM came to 103%. In addition, the remaining activity at 3.75 µM in experiment [2] (setting [16]) was found to be 96.9%.
Regarding `CC(C)=CCC[C@@H](C)[C@H]1CC[C@H]2[C@@H]3CC=C4C[C@@H](O)CC[C@]4(C)[C@H]3CC[C@]12C` [Desmosterol], the remaining activity at 1.25 µM in experiment [1] (setting [17]) stood at 101%. For the same molecule, the remaining activity at 3.75 µM in experiment [2] (setting [17]) is 99%.
For the molecule `CC1(C)O[C@@H]2C[C@H]3[C@@H]4CCC5=CC(=O)C=C[C@]5(C)[C@H]4[C@@H](O)C[C@]3(C)[C@]2(C(=O)CO)O1` [Desonide], the remaining activity at 1.25 µM in experiment [1] (setting [18]) came out at 95.1%; in experiment [1] (setting [19]), 99.7%. The results for the remaining activity at 3.75 µM in experiment [2] (setting [18]) and in experiment [2] (setting [19]) were 84.9% and 96%, respectively.
Regarding `c1ccc2c(c1)CN1CCCC1=N2` [Desoxypeganine], the remaining activity at 1.25 µM in experiment [1] (setting [20]) amounted to 98%. Also, the remaining activity at 3.75 µM in experiment [2] (setting [20]) stood at 97.7%.
As to `CN(C)CC(c1ccc(O)cc1)C1(O)CCCCC1` (stereo not drawn) [Desvenlafaxine], the remaining activity at 1.25 µM in experiment [1] (setting [21]) worked out at 94.5%. Besides, the remaining activity at 3.75 µM in experiment [2] (setting [21]) amounted to 96.9%.
As to `Cc1cccc(Cc2c[nH]cn2)c1C` [Detomidine (hydrochloride)], in experiment [1] (setting [22]), the remaining activity at 1.25 µM was determined as 98.9%. For the same molecule, the remaining activity at 3.75 µM in experiment [2] (setting [22]) is 102%.
Turning to `Cc1cccc(Cc2c[nH]cn2)c1C` [Detomidine HCl], the remaining activity at 1.25 µM in experiment [1] (setting [23]) was 103%. The remaining activity at 3.75 µM in experiment [2] (setting [23]) worked out at 105%.
As to `CC(=O)OCC(=O)[C@@]1(O)[C@H](C)C[C@H]2[C@@H]3CCC4=CC(=O)C=C[C@]4(C)[C@@]3(F)[C@@H](O)C[C@@]21C` [Dexamethasone (acetate)], in experiment [1] (setting [24]), the remaining activity at 1.25 µM stood at 107%. In addition, the remaining activity at 3.75 µM in experiment [2] (setting [24]) worked out at 106%.
In the case of `CC(=O)OCC(=O)[C@@]1(O)[C@H](C)C[C@H]2[C@@H]3CCC4=CC(=O)C=C[C@]4(C)[C@@]3(F)[C@@H](O)C[C@@]21C` [Dexamethasone acetate], the remaining activity at 1.25 µM in experiment [1] (setting [25]) is 99.3%. For the same molecule, in experiment [2] (setting [25]), the remaining activity at 3.75 µM came to 98%.
With `C[C@@H]1C[C@H]2[C@@H]3CCC4=CC(=O)C=C[C@]4(C)[C@@]3(F)[C@@H](O)C[C@]2(C)[C@@]1(O)C(=O)CO` [Dexamethasone], the remaining activity at 1.25 µM worked out at 99.1% in experiment [1] (setting [26]) and 96.6% in experiment [1] (setting [27]). Further, the remaining activity at 3.75 µM worked out at 100% in experiment [2] (setting [26]) and 98.7% in experiment [2] (setting [27]).
As to `CN(C)CC[C@@H](c1ccc(Cl)cc1)c1ccccn1` [Dexchlorpheniramine (maleate)], in experiment [1] (setting [28]), the remaining activity at 1.25 µM turned out to be 103%. Also, in experiment [2] (setting [28]), the remaining activity at 3.75 µM amounted to 101%.
In the case of `Cc1cccc([C@H](C)c2c[nH]cn2)c1C` [Dexmedetomidine (hydrochloride)], the remaining activity at 1.25 µM in experiment [1] (setting [29]) was 102%. For the same molecule, the remaining activity at 3.75 µM in experiment [2] (setting [29]) worked out at 103%.
Regarding `Cc1cccc([C@H](C)c2c[nH]cn2)c1C` [Dexmedetomidine], in experiment [1] (setting [30]), the remaining activity at 1.25 µM came out at 94.4%. Also, the remaining activity at 3.75 µM in experiment [2] (setting [30]) was 95.8%.
On to `CCCN[C@@H]1CCc2nc(N)sc2C1` [Dexpramipexole (dihydrochloride)], for which the remaining activity at 1.25 µM in experiment [1] (setting [31]) is 98.2%. Besides, the remaining activity at 3.75 µM in experiment [2] (setting [31]) was 93.6%.
Turning to `C[C@@H](CN1CC(=O)NC(=O)C1)N1CC(=O)NC(=O)C1` [Dexrazoxane HCl], in experiment [1] (setting [32]), the remaining activity at 1.25 µM stood at 101%. For the same molecule, the remaining activity at 3.75 µM in experiment [2] (setting [32]) came out at 104%.
In the case of `COc1ccc2c(c1)[C@]13CCCC[C@@H]1[C@H](C2)N(C)CC3` [Dextromethorphan (hydrobromide hydrate)], the remaining activity at 1.25 µM in experiment [1] (setting [33]) worked out at 101%. In addition, the remaining activity at 3.75 µM in experiment [2] (setting [33]) turned out to be 96.5%.
As to `COc1ccc2c(c1)[C@]13CCCC[C@@H]1[C@H](C2)N(C)CC3` [Dextromethorphan hydrobromide monohydrate], the remaining activity at 1.25 µM in experiment [1] (setting [34]) came out at 100%. In addition, the remaining activity at 3.75 µM in experiment [2] (setting [34]) was determined as 104%.
On to `COc1ccc2c(c1)[C@]13CCCC[C@@H]1[C@H](C2)N(C)CC3` [Dextromethorphan], for which the remaining activity at 1.25 µM in experiment [1] (setting [35]) came out at 98.8%. In addition, the remaining activity at 3.75 µM in experiment [2] (setting [35]) amounted to 101%.
